Article PMC8795197, “Safety and activity of WX-0593 (Iruplinalkib) in patients with ALK- or ROS1-rearranged advanced non-small cell lung cancer: a phase 1 dose-escalation and dose-expansion trial” (Signal Transduction and Targeted Therapy, 2022)
Where two headings read alike, the source gives them in different places.

How the values were obtained:
[1] = Phase 1 dose-escalation phase: plasma pharmacokinetics; type: in vivo, human; settings: for Tmax / AUC(0-t) / AUC(0-inf) / Cmax / MRT inf / half-life: human, plasma, oral; for Tmax / AUC(0-t) / AUC(0-inf) / Cmax / MRT inf / half-life / Cssmax / Cssmin / Racc_AUC / Racc_Cmax: mean (SD); for MRT inf: read-out: MRT0-∞; for half-life: read-out: T1/2z (converted)
Protocol: Three patients were assigned to each dose level. In the dosing cohort of 30 mg, treatment included a single WX-0593 dose, followed by 7-day PK evaluation period, and subsequent daily oral dosing for continuous 21 days. In other dosing cohorts, WX-0593 was administered orally as a single dose in the 4-day PK run-in period, followed by dosing once per day in continuous 21-day cycles. The DLT observation period was the first cycle of WX-0593 treatment (the single-dose period and 21 days of multiple-dose period).
In the dose-escalation phase, blood samples were collected at protocol-specified time points after single and multiple dose administration of WX-0593 in all dosing cohorts for assessment of PK parameters.
Safety analysis was performed in the SS, which was comprised of all patients treated with one dose of WX-0593 and with safety data recorded. Efficacy analysis was performed in the FAS, which was defined as all patients treated with at least one dose of WX-0593. The PK analysis set included all patients treated with at least one dose of WX-0593 and with at least one evaluable PK sample.
Descriptive statistics were carried out to summarize patients’ baseline characteristics and safety. […] All time-to-event data (PFS, TTP, DOR, and OS) and their corresponding 95% CIs were estimated by Kaplan–Meier methods. PK parameter analyses were done with Phoenix WinNonlin version 8.0. All other statistical analyses were conducted using SAS version 9.4.
Blood sampling time points for single dose: Blood samples are collected before dosing and 0.5 h, 1 h, 2 h, 3 h, 4 h, 5 h, 6 h, 8 h, 12 h, 24 h, 32 h, 48 h, and 72 h after dosing (after adjustment according to the pharmacokinetic parameters of patients in the first dose arm).
Blood sampling time points for repeated dosing: Repeated dosing starts 4 days after single dose administration. Blood samples are collected before repeated dosing on Days 7, 14, and 21 before repeated dosing, and within 24h after dosing (0.5 h, 1 h, 2 h, 3 h, 4 h, 5 h, 6 h, 8 h, 12 h, 24 h) for measurement of blood pharmacokinetic parameters.
The plasma concentration of WX-0593 will be determined using LC-MS.

[2] = Absorption study (IV and oral gavage PK); type: in vivo, Sprague Dawley (SD) rats; settings: for bioavailability: read-out: absolute bioavailability
[3] = system: Caco-2 cell monolayer; test: Caco-2 cell monolayer permeability assay; type: in vitro ADME
Description: The objective of this study was to determine the bidirectional permeability and efflux ratio (ER) of the test article WX-0593 using the Caco-2 cell monolayer model.

[4] = multiple dosing 120 mg (n = 11)
[5] = multiple dosing 180 mg (n = 13)
[6] = multiple dosing 240 mg (n = 12)

## COc1cc(N2CCC3(CCN(C)CC3)CC2)ccc1Nc1ncc(Cl)c(Nc2ccccc2P(C)(C)=O)n1 [WX-0593]
[1]; 180 mg, once daily
  free Cavg,ss: 127 nM
[1]; 30 mg, multiple dosing 30 mg (n = 3)
  Tmax: 4.33 h
[1]; 30 mg, multiple dosing 30 mg (n = 3), read-out: AUC0–24
  AUC(0-t): 1150 ng·h/mL
[1]; 30 mg, single dose 30 mg (n = 3)
  Tmax: 2.32 h
[1]; 30 mg, single dose 30 mg (n = 3), read-out: AUC0-t
  AUC(0-t): 1310 ng·h/mL
[1]; 60 mg, multiple dosing 60 mg (n = 3)
  Tmax: 4.01 h
[1]; 60 mg, multiple dosing 60 mg (n = 3), read-out: AUC0–24
  AUC(0-t): 4960 ng·h/mL
[1]; 60 mg, single dose 60 mg (n = 3)
  Tmax: 1.33 h
[1]; 60 mg, single dose 60 mg (n = 3), read-out: AUC0-t
  AUC(0-t): 3650 ng·h/mL
[1]; 90 mg, multiple dosing 90 mg (n = 8)
  Tmax: 2.87 h
[1]; 90 mg, multiple dosing 90 mg (n = 8), read-out: AUC0–24
  AUC(0-t): 4390 ng·h/mL
[1]; 90 mg, single dose 90 mg (n = 8)
  Tmax: 1.69 h
[1]; 90 mg, single dose 90 mg (n = 8), read-out: AUC0-t
  AUC(0-t): 5430 ng·h/mL
[1]; 120 mg, multiple dosing 120 mg (n = 11)
  Tmax: 2.79 h
[1]; 120 mg, multiple dosing 120 mg (n = 11), read-out: AUC0–24
  AUC(0-t): 6120 ng·h/mL
[1]; 120 mg, single dose 120 mg (n = 11)
  Tmax: 1.81 h
[1]; 120 mg, single dose 120 mg (n = 11), read-out: AUC0-t
  AUC(0-t): 7780 ng·h/mL
[1]; 180 mg, multiple dosing 180 mg (n = 13)
  Tmax: 2.79 h
[1]; 180 mg, multiple dosing 180 mg (n = 13), read-out: AUC0–24
  AUC(0-t): 7210 ng·h/mL
[1]; 180 mg, single dose 180 mg (n = 12)
  Tmax: 2.29 h
[1]; 180 mg, single dose 180 mg (n = 12), read-out: AUC0-t
  AUC(0-t): 6620 ng·h/mL
[1]; 240 mg, multiple dosing 240 mg (n = 12)
  Tmax: 3.27 h
[1]; 240 mg, multiple dosing 240 mg (n = 12), read-out: AUC0–24
  AUC(0-t): 12700 ng·h/mL
[1]; 240 mg, single dose 240 mg (n = 10)
  Tmax: 2.5 h
[1]; 240 mg, single dose 240 mg (n = 10), read-out: AUC0-t
  AUC(0-t): 15500 ng·h/mL
[1]; 300 mg, multiple dosing 300 mg (n = 2)
  Tmax: 1.24 h
[1]; 300 mg, multiple dosing 300 mg (n = 2), read-out: AUC0–24
  AUC(0-t): 23400 ng·h/mL
[1]; 300 mg, single dose 300 mg (n = 3)
  Tmax: 2.71 h
[1]; 300 mg, single dose 300 mg (n = 3), read-out: AUC0-t
  AUC(0-t): 14900 ng·h/mL
[1]; single dose 30 mg (n = 3)
  AUC(0-inf): 1710 ng·h/mL
  Cmax: 105 ng/mL
  MRT inf: 20.7 h
  half-life: 15.5 h
[1]; single dose 60 mg (n = 3)
  AUC(0-inf): 4060 ng·h/mL
  Cmax: 305 ng/mL
  MRT inf: 28.3 h
  half-life: 25.7 h
[1]; single dose 90 mg (n = 8)
  AUC(0-inf): 6210 ng·h/mL
  Cmax: 474 ng/mL
  MRT inf: 24 h
  half-life: 21.9 h
[1]; single dose 120 mg (n = 11)
  AUC(0-inf): 8120 ng·h/mL
  Cmax: 571 ng/mL
  MRT inf: 25.6 h
  half-life: 22.2 h
[1]; single dose 180 mg (n = 12)
  AUC(0-inf): 7320 ng·h/mL
  Cmax: 401 ng/mL
  MRT inf: 27.9 h
  half-life: 23.9 h
[1]; single dose 240 mg (n = 10)
  AUC(0-inf): 16900 ng·h/mL
  Cmax: 1000 ng/mL
  MRT inf: 25 h
  half-life: 22.9 h
[1]; single dose 300 mg (n = 3)
  AUC(0-inf): 17100 ng·h/mL
  Cmax: 905 ng/mL
  MRT inf: 32.4 h
  half-life: 27.5 h
[1]; multiple dosing 30 mg (n = 3)
  Cssmax: 95.13 (54.02) ng/mL
  Cssmin: 25.00 (8.04) ng/mL
  Racc_AUC: 116.256 (32.91) %
  Racc_Cmax: 89.141 (35.00) %
[1]; multiple dosing 60 mg (n = 3)
  Cssmax: 419.00 (128.24) ng/mL
  Cssmin: 117.87 (59.10) ng/mL
  Racc_AUC: 203.993 (32.03) %
  Racc_Cmax: 150.689 (39.79) %
[1]; multiple dosing 90 mg (n = 8)
  Cssmax: 324.38 (109.58) ng/mL
  Cssmin: 103.65 (29.27) ng/mL
  Racc_AUC: 149.978 (88.53) %
  Racc_Cmax: 117.082 (97.12) %
[1]; [4]
  Cssmax: 479.20 (151.70) ng/mL
  Cssmin: 139.24 (34.22) ng/mL
  Racc_AUC: 130.809 (36.42) %
  Racc_Cmax: 111.519 (44.39) %
[1]; [5]
  Cssmax: 529.38 (203.22) ng/mL
  Cssmin: 164.10 (77.76) ng/mL
  Racc_AUC: 174.265 (35.49) %
  Racc_Cmax: 138.238 (26.54) %
[1]; [6]
  Cssmax: 960.50 (234.47) ng/mL
  Cssmin: 236.00 (56.80) ng/mL
  Racc_AUC: 160.210 (77.95) %
  Racc_Cmax: 127.749 (58.74) %
[1]; multiple dosing 300 mg (n = 2)
  Cssmax: 1685.00 (657.61) ng/mL
  Cssmin: 623.50 (402.34) ng/mL
  Racc_AUC: 309.507 (151.00) %
  Racc_Cmax: 223.005 (88.95) %
[1]; once-daily 30 to 300 mg, AUC0–24
  dose proportionality of exposure: increased in an approximately dose-proportion manner
[2]; both sexes, Sprague-Dawley, rat, plasma, oral gavage 2–24 mg/kg
  Tmax: 2.08 to 2.75 h
[2]; both sexes, Sprague-Dawley, rat, plasma, oral gavage 2–24 mg/kg, read-out: plasma terminal half-life
  half-life: 3.14 to 3.7 h
[2]; both sexes, Sprague-Dawley, rat, plasma, single IV 2 mg/kg
  AUC(0-inf): 1560 ± 348 ng·h/mL
[2]; both sexes, Sprague-Dawley, rat, plasma, single IV 2 mg/kg, read-out: apparent volume of distribution (Vdss)
  Vd: 5.23 ± 0.942 L/kg
[2]; both sexes, Sprague-Dawley, rat, plasma, single IV 2 mg/kg, read-out: mean residence time (MRT0-inf)
  MRT inf: 3.96 ± 0.355 h
[2]; both sexes, Sprague-Dawley, rat, plasma, single IV 2 mg/kg, read-out: plasma clearance (CL)
  clearance: 22.2 ± 4.67 mL/min/kg
[2]; both sexes, Sprague-Dawley, rat, plasma, single IV 2 mg/kg, read-out: plasma elimination half-life T1/2 (converted)
  half-life: 3.58 ± 0.652 h
[2]; both sexes, Sprague-Dawley, rat, plasma, single oral gavage 2 mg/kg
  bioavailability: 36.9%
[2]; both sexes, Sprague-Dawley, rat, plasma, single oral gavage 24 mg/kg
  bioavailability: 69.6%
[2]; oral 8 mg/kg, 7 consecutive days
  drug accumulation: no significant drug accumulation
[2]; single IV 2 mg/kg
  CL as % of hepatic blood flow in rats: 40.3%
[2]; single oral gavage 8 mg/kg
  absolute bioavailability: 64.7%
[3]
  efflux transporter substrate: very likely to be a substrate of efflux transporters
[3]; 50 µM
  permeability: high permeability
[3]; 0.5 and 5 µM
  permeability: low permeability
